One experiment has as its target T1, rMal d 3 (Malus domestica, UniProt Q9M5X7).
T1 construct: gene MALD3; recombinant, produced in Pichia pastoris, purified
T1 sequence (Q9M5X7 25-115): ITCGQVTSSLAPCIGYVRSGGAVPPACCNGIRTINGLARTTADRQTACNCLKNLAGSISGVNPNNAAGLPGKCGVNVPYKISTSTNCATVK
The experiment can be described thus: ANS displacement fluorescence. The class given is binding. Particulars: 50 μmol/L ligand, protein:ligand 1:5.

For a further experiment, the target named is T2, rCor a 8 (Corylus avellana, UniProt Q9ATH2).
T2 construct: recombinant, produced in Pichia pastoris, purified
T2 sequence (Q9ATH2 24-115): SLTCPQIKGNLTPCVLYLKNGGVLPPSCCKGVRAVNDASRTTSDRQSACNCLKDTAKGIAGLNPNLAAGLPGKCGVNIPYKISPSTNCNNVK
The experiment can be described thus: ANS displacement fluorescence. The class given is binding. The conditions noted are these: 50 μmol/L ligand, protein:ligand 1:5.

Regarding `CCCCCCCCCCCCCCCCCC(=O)O` [STE, stearic acid], on rMal d 3, the “% reduction of ANS fluorescence at 50 μmol/L” value was determined as 17%. On to `CCCCCCCC/C=C\CCCCCCCC(=O)O` [OLE, oleic acid], for which the “% reduction of ANS fluorescence at 50 μmol/L” value at rCor a 8 turned out to be 23%; on rMal d 3, 59%.

The values are drawn from article PMC6491988, “Distinct Lipid Transfer Proteins display different IgE‐binding activities that are affected by fatty acid binding” (Allergy, 2018).
